In one series the target is SNAP-D2L receptors (Homo sapiens, UniProt P14416+P16455, A127T/A154D/C150Q/C62A/E30R/G131K/G132T/G153L/K125A/K32I/L33F/M134L/N157G/Q115S/Q116H/R128A/R135S/S151G/S152D/S159E). Description: [3H]spiperone competition/saturation binding, membranes of CHO cells expressing SNAP-D2L.
In another series the target is T1, SNAP-D2L receptor (Homo sapiens, UniProt P14416).
T1 construct: expressed in transfected cells
Description: Single-molecule TIRF-M of SNAP-D2L receptors in CHO cells with ligands (dimerization, mobility, colocalization). In kind it is cell-based. As to conditions: for effect on monomer/dimer ratio and mobility of the SNAP-D2L receptor compared to ligand-free conditions: Alexa546-labeled SNAP-D2L in CHO cells incubated with ligand; for Average Dlat 24°C (average lateral diffusion coefficient) / Density (spots µm-2) / fraction of dimers: SNAP-D2L in CHO cells; for Average Dlat 24°C (average lateral diffusion coefficient) / Density (spots µm-2): mean ± s.d.; for mean apparent colocalization lifetime τ of two receptors in a dimer: SNAP-D2L incubated with ligand, one-phase exponential decay fit, 120 trajectories, ligand free 0.46 s; for fraction of dimers: 10-fold Ki, ligand-free 30%. How it is done: 24 h before the TIRF-experiment dried and cleaned glass slides were placed in a 12 well plate and were coated by incubation with 20 μg ml^−1 fibronectin (Sigma–Aldrich) in sterile PBS for 1 h at 37 °C. After coating, fibronectin was aspirated and the glass surface was rinsed one time with sterile PBS. CHO cells expressing SNAP-D2L, SNAP-CD86, SNAP-CD28, D2L, D2S or D3 receptors were seeded on coated glass slides in phenol-red-free DMEM/F12 supplemented with 10% FCS and were allowed to adhere overnight at 37 °C and 5% CO2.
Subsequently, cells were washed three times with phenol red-free DMEM/F12 supplemented with 10% FBS, each time followed by 5 min incubation at 37 °C.
For the ligand treatment experiments, the indicated concentration of the corresponding ligand in phenol red-free DMEM/F12 supplemented with 10% FBS were added to stably transfected CHO cells, which were ready for imaging, for 1 h before imaging.
Subsequently after labeling, cells were washed three times with phenol red-free DMEM/F12 supplemented with 10% FBS. […] Finally the imaging chamber was refilled with fresh imaging buffer and mounted immediately on a microscope stage for TIRF-M imaging.
The microscope control and image acquisition were performed by the NIS Elements software (Nikon Instruments). To ensure homogenous illumination, only the central quarter of the chip (300 × 300 pixel) was used for imaging analysis.
The image analysis procedures have been described in detail previously. An automated single particle tracking (ASPT) algorithm[58] implemented in custom-written software, GMimPro (www.mashanov.uk), was used to identify and track individual fluorescent spots on sequential video frames. ASPT settings used were FWHM300nm, R5, L20, Q10 and C999. Output from this image analysis gave fluorophore centroid positions (with 25 nm precision), integrated fluorophore intensities, total fluorophore number and trajectory lifetime. Spatial trajectories and intensity trajectories (i.e. intensities vs. time) were then further analysed to determine: the lateral diffusion coefficient, Dlat, which was derived from averaged mean squared displacement (MSD) versus time interval (δt), the average fluorescent spot density (spot μm^−^2) and distribution across the cell membrane and the intensity distribution of individual fluorescent spots and intensity fluctuation with time as well as the lifetime of colocalization. The Dlat was measured for each cell separately and the average value (average Dlat, mean ± standard deviation (s.d.)) was calculated for an indicated number of cells. Slow-moving objects Dlat < 0.02 μm^2 s^−1 were excluded from the analysis and only cells with a mobile trajectory fraction (trajectories with a Dlat > 0.02 μm^2 s^−1) over 0.75 were used for further analysis. Intensity distributions of fluorescent spots identified over the first 10-frame time window of TIRF illumination were fitted with a sum of Gaussian distributions (with standard deviation proportional to square root of intensity level) using the PRISM routine. The ratio of the areas under the Gaussian curves was calculated to give the percentage of the underlying component. Unpaired two-tailed Student´s t-tests were used for statistical significance.

The next series addresses T2, human D2S (Homo sapiens, UniProt P14416).
T2 construct: expressed in transfected cells
Description: [3H]spiperone competition/saturation binding, membranes of CHO cells expressing human D2S. As to conditions: [³H]spiperone competition, CHO cell membranes; read-out: Ki ± s.d. hD2S.

For the next series, the target named is T3, human D3 (Homo sapiens, UniProt P35462).
T3 construct: expressed in transfected cells
T3 sequence (P35462 whole entry): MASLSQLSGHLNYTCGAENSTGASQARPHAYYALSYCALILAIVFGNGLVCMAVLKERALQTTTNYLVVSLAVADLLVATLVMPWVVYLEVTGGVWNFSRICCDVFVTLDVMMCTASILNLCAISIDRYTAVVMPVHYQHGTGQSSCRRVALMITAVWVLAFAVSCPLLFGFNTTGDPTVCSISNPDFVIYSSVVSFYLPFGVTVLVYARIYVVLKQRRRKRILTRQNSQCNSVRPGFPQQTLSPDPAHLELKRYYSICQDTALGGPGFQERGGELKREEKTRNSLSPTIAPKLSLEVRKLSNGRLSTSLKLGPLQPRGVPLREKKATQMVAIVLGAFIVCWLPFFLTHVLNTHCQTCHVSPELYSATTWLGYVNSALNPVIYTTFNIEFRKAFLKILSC
Description: [3H]spiperone competition/saturation binding, membranes of CHO cells expressing human D3. As to conditions: [³H]spiperone competition, CHO cell membranes; read-out: Ki ± s.d. hD3.

For the next series, the target named is T4, human D2L (Homo sapiens, UniProt P14416).
T4 construct: expressed in transfected cells
The series is described as follows: [3H]spiperone competition/saturation binding, membranes of CHO cells expressing human D2L. To be noted: [³H]spiperone competition, CHO cell membranes; read-out: Ki ± s.d. hD2L.

Series [1] has as its target T5, human dopamine D2L receptor (wild type, non-tagged) (human), P14416.
T5 chain: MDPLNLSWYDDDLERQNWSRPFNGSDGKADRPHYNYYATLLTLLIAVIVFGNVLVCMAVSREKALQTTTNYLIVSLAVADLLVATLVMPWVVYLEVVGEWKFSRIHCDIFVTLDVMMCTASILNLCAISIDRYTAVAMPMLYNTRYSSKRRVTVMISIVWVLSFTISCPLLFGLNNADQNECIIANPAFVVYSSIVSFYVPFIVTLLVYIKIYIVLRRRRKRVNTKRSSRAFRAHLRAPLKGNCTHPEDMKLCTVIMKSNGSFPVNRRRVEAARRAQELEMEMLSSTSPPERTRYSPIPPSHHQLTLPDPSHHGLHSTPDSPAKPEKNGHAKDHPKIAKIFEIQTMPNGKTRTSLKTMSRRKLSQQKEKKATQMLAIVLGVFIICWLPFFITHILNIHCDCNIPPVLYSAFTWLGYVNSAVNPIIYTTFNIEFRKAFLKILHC
The series is described as follows: single-molecule TIRF microscopy (intensity distribution of fluorescent spots); receptors on living CHO cells labelled 1 h at 37 °C with a fluorescent (Cy3B) antagonist (1c, 4a or 4b) at 10-fold Ki; spots fitted with a mixed Gaussian model. As to conditions: remark: other sources report otherwise.

Series [2] addresses T5, human dopamine D2L receptor (wild type, …). The series is described as follows: single-molecule TIRF microscopy (intensity distribution of fluorescent spots); receptors on living CHO cells labelled 1 h at room temperature with a fluorescent (Cy3B) agonist (5a or 5b) at 10-fold Ki; spots fitted with a mixed Gaussian model. As to conditions: remark: other sources report otherwise.

Series [3] deals with the molecule itself. Description: single-molecule TIRF microscopy (intensity distribution of fluorescent spots); receptors on living CHO cells labelled 1 h at 37 °C with a fluorescent (Cy3B) antagonist (1c, 4a or 4b) at 10-fold Ki; spots fitted with a mixed Gaussian model.
Setting [4] is: 10 x Ki value labeling concentration.
Setting [5] is: 100 x Ki value labeling concentration.

SNAP-D2L receptors, sequence (P16455+P14416 fused with the stated changes): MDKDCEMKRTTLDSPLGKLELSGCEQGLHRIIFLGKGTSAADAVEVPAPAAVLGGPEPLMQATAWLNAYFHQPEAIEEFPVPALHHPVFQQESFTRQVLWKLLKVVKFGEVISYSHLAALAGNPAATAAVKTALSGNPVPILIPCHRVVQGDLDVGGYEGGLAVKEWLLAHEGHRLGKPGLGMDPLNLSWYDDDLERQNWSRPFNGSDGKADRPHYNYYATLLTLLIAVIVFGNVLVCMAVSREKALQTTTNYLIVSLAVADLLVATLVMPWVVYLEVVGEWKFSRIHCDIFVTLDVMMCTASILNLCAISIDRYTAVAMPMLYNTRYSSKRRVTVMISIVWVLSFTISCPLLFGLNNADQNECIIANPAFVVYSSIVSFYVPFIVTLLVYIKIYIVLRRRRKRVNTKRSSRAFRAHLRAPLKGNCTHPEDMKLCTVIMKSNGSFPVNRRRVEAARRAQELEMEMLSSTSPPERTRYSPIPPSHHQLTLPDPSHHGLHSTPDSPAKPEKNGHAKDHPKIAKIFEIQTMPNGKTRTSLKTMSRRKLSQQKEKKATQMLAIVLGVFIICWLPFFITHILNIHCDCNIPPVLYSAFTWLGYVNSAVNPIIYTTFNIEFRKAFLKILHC

Turning to `CCCCn1cc(CCCOc2ccc(CN3CCN(c4ccccc4OC)CC3)cc2OC)nn1` [1a], the inhibitory constant (Ki) at SNAP-D2L receptors stood at 280 ± 190 nM; at human D2S, 53 ± 37 nM; at human D3 it was 615 ± 370 nM; on human D2L, 67 ± 33 nM. At SNAP-D2L receptor, the “effect on monomer/dimer ratio and mobility of the SNAP-D2L receptor compared to ligand-free conditions” value is given as “no effect”. The “Average Dlat 24°C (average lateral diffusion coefficient)” value (“Average Dlat 24°C” for short) on SNAP-D2L receptor (setting [4]) was 0.087 ± 0.003 µm² s-1; on SNAP-D2L receptor (setting [5]), 0.083 ± 0.005 µm² s-1. Also, the entries for the “Density (spots µm-2)” value at SNAP-D2L receptor (setting [4]) and at SNAP-D2L receptor (setting [5]) were 0.68 ± 0.04 spots µm-2 and 0.69 ± 0.03 spots µm-2, respectively. Besides, the “mean apparent colocalization lifetime τ of two receptors in a dimer” value on SNAP-D2L receptor came to 0.42 s.
Consider `CCCCn1cc(CCCOc2ccc(CN3CCN(c4ccccc4OC)CC3)cc2OCCCCN)nn1` [1b], for which the Ki at SNAP-D2L receptors was determined as 4.8 ± 0.28 nM; at human D2S, 18 ± 5.7 nM; on human D3, 70 ± 24 nM; on human D2L, 15 ± 8 nM. On SNAP-D2L receptor, the “effect on monomer/dimer ratio and mobility of the SNAP-D2L receptor compared to ligand-free conditions” value is “no effect”. For the same molecule, the “Average Dlat 24°C” value on SNAP-D2L receptor (setting [4]) is given as 0.085± 0.004 µm² s-1; at SNAP-D2L receptor (setting [5]), 0.081 ± 0.006 µm² s-1. Besides, the “Density (spots µm-2)” value is reported as 0.66 ± 0.04 spots µm-2 on SNAP-D2L receptor (setting [4]) and 0.69 ± 0.04 spots µm-2 at SNAP-D2L receptor (setting [5]).
For `COc1cc(CN2CCN(c3ccccc3OC)CC2)ccc1OCCCc1cn(CCCCCCCCn2cc(CCCOc3ccc(CN4CCN(c5ccccc5OC)CC4)cc3OC)nn2)nn1` [2a], the Ki at SNAP-D2L receptors is 20 ± 7.1 nM; on human D2S, 41 ± 19 nM; on human D3, 84 ± 24 nM; on human D2L, 22 ± 6.7 nM. At SNAP-D2L receptor, this molecule displayed a fraction of dimers of 66%. Also, the “Average Dlat 24°C” value at SNAP-D2L receptor (setting [4]) turned out to be 0.074 ± 0.004 µm² s-1; at SNAP-D2L receptor (setting [5]) it was 0.075 ± 0.005 µm² s-1. Moreover, the “Density (spots µm-2)” value on SNAP-D2L receptor (setting [4]) and at SNAP-D2L receptor (setting [5]) was 0.65 ± 0.04 spots µm-2 each time. The “mean apparent colocalization lifetime τ of two receptors in a dimer” value at SNAP-D2L receptor is 1.16 s.
Consider `COc1ccccc1N1CCN(Cc2ccc(OCCCc3cn(CCCCCCCCn4cc(CCCOc5ccc(CN6CCN(c7ccccc7OC)CC6)cc5OCCCCN)nn4)nn3)c(OCCCCN)c2)CC1` [2b], for which the Ki at SNAP-D2L receptors turned out to be 2.4 ± 1.1 nM; on human D2S it was 3 ± 0.92 nM; on human D3 it was 2.6 ± 0.64 nM; on human D2L it was 3 ± 0.29 nM. For the same molecule, the fraction of dimers on SNAP-D2L receptor was found to be 58%. Moreover, the results for the “Average Dlat 24°C” value on SNAP-D2L receptor (setting [4]) and on SNAP-D2L receptor (setting [5]) were 0.075 ± 0.004 µm² s-1 and 0.071 ± 0.05 µm² s-1, respectively. Further, the entries for the “Density (spots µm-2)” value at SNAP-D2L receptor (setting [4]) and on SNAP-D2L receptor (setting [5]) were 0.64 ± 0.04 spots µm-2 and 0.67 ± 0.02 spots µm-2, respectively.
As for `COc1cc(CN2CCN(C)CC2)ccc1OCCCc1cn(CCCCCCCCn2cc(CCCOc3ccc(CN4CCN(c5ccccc5OC)CC4)cc3OC)nn2)nn1` [3a], the “Average Dlat 24°C” value on SNAP-D2L receptor (setting [4]) was found to be 0.083 ± 0.004 µm² s-1. For the same molecule, at SNAP-D2L receptor (setting [4]), the “Density (spots µm-2)” value was found to be 0.67 ± 0.03 spots µm-2. For the same molecule, the Ki at human D2S came out at 7.3 ± 1.3 nM; on human D3, 220 ± 83 nM; at human D2L it was 9.8 ± 9.8 nM.
With `COc1cc(CN2CCN(c3ccccc3OC)CC2)ccc1OCCCc1cn(CCCCCCCCn2cc(CCCOc3ccc(CN4CCN(C5CCCCC5)CC4)cc3OC)nn2)nn1` [3b], the “Average Dlat 24°C” value at SNAP-D2L receptor (setting [4]) was 0.083 ± 0.005 µm² s-1. For the same molecule, on SNAP-D2L receptor (setting [4]), the “Density (spots µm-2)” value worked out at 0.68 ± 0.04 spots µm-2. The inhibition constant Ki on human D2S stood at 17 ± 8.1 nM; at human D3, 100 ± 33 nM; at human D2L, 19 ± 8.2 nM.

B1: human dopamine D2L receptor (wild type, non-tagged), P14416 1-443 (receptor)
chain: MDPLNLSWYDDDLERQNWSRPFNGSDGKADRPHYNYYATLLTLLIAVIVFGNVLVCMAVSREKALQTTTNYLIVSLAVADLLVATLVMPWVVYLEVVGEWKFSRIHCDIFVTLDVMMCTASILNLCAISIDRYTAVAMPMLYNTRYSSKRRVTVMISIVWVLSFTISCPLLFGLNNADQNECIIANPAFVVYSSIVSFYVPFIVTLLVYIKIYIVLRRRRKRVNTKRSSRAFRAHLRAPLKGNCTHPEDMKLCTVIMKSNGSFPVNRRRVEAARRAQELEMEMLSSTSPPERTRYSPIPPSHHQLTLPDPSHHGLHSTPDSPAKPEKNGHAKDHPKIAKIFEIQTMPNGKTRTSLKTMSRRKLSQQKEKKATQMLAIVLGVFIICWLPFFITHILNIHCDCNIPPVLYSAFTWLGYVNSAVNPIIYTTFNIEFRKAFLKILHC
In series [1], B1 came in with a percent of fluorescent spots that are dimers, labelled with antagonist 1c of 29%; a percent of fluorescent spots that are dimers, labelled with antagonist 4a of 30%; a percent of fluorescent spots that are dimers, labelled with antagonist 4b of 29%; a percent of fluorescent spots that are monomers, labelled with antagonist 1c of 71%. Moreover, in series [1], the percent of fluorescent spots that are monomers, labelled with antagonist 4a was 70% and the stoichiometry N turned out to be 2. In addition, in series [2], the percent of fluorescent spots that are dimers, labelled with agonist 5a was determined as 45% and the percent of fluorescent spots that are dimers, labelled with agonist 5b stood at 42%.

B2: human dopamine D2S receptor (receptor, UniProt P14416-2 1-414, looked up)
chain: MDPLNLSWYDDDLERQNWSRPFNGSDGKADRPHYNYYATLLTLLIAVIVFGNVLVCMAVSREKALQTTTNYLIVSLAVADLLVATLVMPWVVYLEVVGEWKFSRIHCDIFVTLDVMMCTASILNLCAISIDRYTAVAMPMLYNTRYSSKRRVTVMISIVWVLSFTISCPLLFGLNNADQNECIIANPAFVVYSSIVSFYVPFIVTLLVYIKIYIVLRRRRKRVNTKRSSRAFRAHLRAPLKEAARRAQELEMEMLSSTSPPERTRYSPIPPSHHQLTLPDPSHHGLHSTPDSPAKPEKNGHAKDHPKIAKIFEIQTMPNGKTRTSLKTMSRRKLSQQKEKKATQMLAIVLGVFIICWLPFFITHILNIHCDCNIPPVLYSAFTWLGYVNSAVNPIIYTTFNIEFRKAFLKILHC
notes: human dopamine D2S receptor (short form of the D2 receptor), non-tagged; source: CHO-K1, stably expressing, in the membrane of living cells
For the molecule B2, the “stoichiometry N” value in series [3] stood at 2.

The record behind these values is article PMC5018964, “Visualization and ligand-induced modulation of dopamine receptor dimerization at the single molecule level” (Scientific Reports, 2016).
